Source: ChEMBL document CHEMBL5726876, “NHE3-binding compounds and methods for inhibiting phosphate transport” (2019)

Test: Cell-based activity under Prompt Conditions: Cell-based activity under Prompt Conditions. Rat or human NHE3-mediated Na+-dependent H+ antiport was measured using a modification of the pH sensitive dye method originally reported by Paradiso (PNAS USA. 81:7436-7440, 1984). Opossum kidney (OK) cells were obtained from the ATCC and propagated per their instructions. The rat NHE3 gene (GenBank M85300) or the human NHE3 gene (GenBank NM_004174.1) was introduced into OK cells via electroporation, and cells were seeded into 96 well plates and grown overnight. Medium was aspirated from the wells, cells were washed twice with NaCl-HEPES buffer (100 mM NaCl, 50 mM HEPES, 10 mM glucose, 5 mM KCl, 2 mM CaCl2, 1 mM MgCl2, pH 7.4), then incubated for 30 min at room temperature with NH4Cl-HEPES buffer (20 mM NH4Cl, 80 mM NaCl, 50 mM HEPES, 5 mM KCl, 2 mM CaCl2, 1 mM MgCl2, pH 7.4) containing 5 μM bis(acetoxymethyl) 3,3′-(3′,6′-bis(acetoxymethoxy)-5-((acetoxymethoxy)carbonyl)-3-oxo-3H-spiro[isobenzofuran-1,9′-xanthene]-2′,7′-diyl)dipropanoate (BCECF-AM).Cells were washed twice with Ammonium free, Na+-free HEPES (100 mM choline, 50 mM HEPES, 10 mM glucose, 5 mM KCl, 2 mM CaCl2, 1 mM MgCl2, pH 7.4) and incubated in the same buffer for 10 minutes at room temperature to lower intracellular pH. […] Initial rates were plotted as the average 2 or more replicates, and pIC50 values were estimated using GraphPad Prism.

| Compound | IC50 |
| --- | --- |
| CN1CCN(C(=O)NC(CCC(=O)NCCOCCOCCNS(=O)(=O)c2cccc([C@@H]3CN(C)Cc4c(Cl)cc(Cl)cc43)c2)(CCC(=O)NCCOCCOCCNS(=O)(=O)c2cccc([C@@H]3CN(C)Cc4c(Cl)cc(Cl)cc43)c2)CCC(=O)NCCOCCOCCNS(=O)(=O)c2cccc([C@@H]3CN(C)Cc4c(Cl)cc(Cl)cc43)c2)CC1 | 126 nM |
| COCCOCCOCCC(=O)NCCOCCOCCOCCN1CCN(c2cccc(-c3nc(NC(=N)N)nc4ccc(Cl)cc34)c2)CC1 | 135 nM |
| NCCOCCOCCN1CCN(c2ccc(-c3nc(N=C(N)N)nc4ccc(Cl)cc34)cc2)CC1 | 100 nM |
| CN(C)[C@H]1Cc2c(Cl)cc(Cl)cc2[C@@H]1Oc1ccc(S(=O)(=O)NCCOCCOCCNC(=O)CCC(C)(N)CCC(=O)NCCOCCOCCNS(=O)(=O)c2ccc(O[C@H]3c4cc(Cl)cc(Cl)c4C[C@@H]3N(C)C)cc2)cc1 | 2.51 nM |
| C/C(=C\c1cc(F)c(Oc2ccc(S(=O)(=O)NCCOCCOCCOCCNC(=O)[C@H](O)[C@@H](O)C(=O)NCCOCCOCCOCCNS(=O)(=O)c3ccc(Oc4c(F)cc(/C=C(\C)C(=O)N=C(N)N)cc4F)cc3)cc2)c(F)c1)C(=O)N=C(N)N | 126 nM |
| NCCOCCOCCN1CCN(c2cccc(-c3nc(N=C(N)N)nc4ccc(Cl)cc34)c2)CC1 | 200 nM |
| CCN(CCOCCOCCNC(=O)NCCCN(CCCNC(=O)NCCOCCOCCN(CC)S(=O)(=O)c1cccc([C@@H]2CN(C)Cc3c(Cl)cc(Cl)cc32)c1)CCCNC(=O)NCCOCCOCCN(CC)S(=O)(=O)c1cccc([C@@H]2CN(C)Cc3c(Cl)cc(Cl)cc32)c1)S(=O)(=O)c1cccc([C@@H]2CN(C)Cc3c(Cl)cc(Cl)cc32)c1 | 1000 nM |
| CN1Cc2c(Cl)cc(Cl)cc2[C@H](c2cccc(S(=O)(=O)NCCOCCOCCOCCNC(=O)CCC(N)(CCC(=O)NCCOCCOCCOCCNS(=O)(=O)c3cccc([C@@H]4CN(C)Cc5c(Cl)cc(Cl)cc54)c3)CCC(=O)NCCOCCOCCOCCNS(=O)(=O)c3cccc([C@@H]4CN(C)Cc5c(Cl)cc(Cl)cc54)c3)c2)C1 | 63.1 nM |
| CCCCCCCCCCC(=O)NCCOCCOCCOCCNS(=O)(=O)c1cccc([C@@H]2CN(C)Cc3c(Cl)cc(Cl)cc32)c1 | < 10000 nM |
| CN1Cc2c(Cl)cc(Cl)cc2[C@H](c2cccc(S(=O)(=O)NCCOCCOCCNC(=O)CCC(CCC(=O)NCCOCCOCCNS(=O)(=O)c3cccc([C@@H]4CN(C)Cc5c(Cl)cc(Cl)cc54)c3)(CCC(=O)NCCOCCOCCNS(=O)(=O)c3cccc([C@@H]4CN(C)Cc5c(Cl)cc(Cl)cc54)c3)NCc3ccc(-c4ccc(Cl)cc4)cc3)c2)C1 | < 10000 nM |
| CN1Cc2c(Cl)cc(Cl)cc2[C@H](c2cccc(S(=O)(=O)NCCOCCOCCNC(=O)NCCCC(CCCNC(=O)NCCOCCOCCNS(=O)(=O)c3cccc([C@@H]4CN(C)Cc5c(Cl)cc(Cl)cc54)c3)(CCCNC(=O)NCCOCCOCCNS(=O)(=O)c3cccc([C@@H]4CN(C)Cc5c(Cl)cc(Cl)cc54)c3)NC(=O)NC[C@H](O)[C@@H](O)[C@H](O)[C@H](O)CO)c2)C1 | 1580 nM |
| CN1Cc2c(Cl)cc(Cl)cc2[C@H](c2cccc(S(=O)(=O)NCCOCCOCCOCCNC(=O)NCCN(CCNC(=O)NCCOCCOCCOCCNS(=O)(=O)c3cccc([C@@H]4CN(C)Cc5c(Cl)cc(Cl)cc54)c3)CCNC(=O)NCCOCCOCCOCCNS(=O)(=O)c3cccc([C@@H]4CN(C)Cc5c(Cl)cc(Cl)cc54)c3)c2)C1 | 126 nM |
| CN1Cc2c(Cl)cc(Cl)cc2[C@H](c2cccc(S(=O)(=O)NCCOCCOCCNC(=O)CCC(CCC(=O)NCCOCCOCCNS(=O)(=O)c3cccc([C@@H]4CN(C)Cc5c(Cl)cc(Cl)cc54)c3)(CCC(=O)NCCOCCOCCNS(=O)(=O)c3cccc([C@@H]4CN(C)Cc5c(Cl)cc(Cl)cc54)c3)NC(=O)NC(CO)CO)c2)C1 | 79.4 nM |
| CN1Cc2c(Cl)cc(Cl)cc2[C@H](c2cccc(S(=O)(=O)NCCOCCOCCNC(=O)CCC(CCC(=O)NCCOCCOCCNS(=O)(=O)c3cccc([C@@H]4CN(C)Cc5c(Cl)cc(Cl)cc54)c3)(CCC(=O)NCCOCCOCCNS(=O)(=O)c3cccc([C@@H]4CN(C)Cc5c(Cl)cc(Cl)cc54)c3)NC(=O)CCCC(=O)O)c2)C1 | 50.1 nM |
